The source of these data is paper PMC12529750 (Emerging Microbes & Infections, 2025).

The EC50 is the midpoint of the concentration-response curve. Higher therefore signals lower potency in that assay. A word on the Cmax: it is the peak of the concentration-time curve.

Data set [1] has as its system SARS-CoV-2 original virus (SARS-CoV-2/human/Denmark/DK-AHH1/2020). The data set can be described thus: microbe, parasite or virus in culture. It is filed as cell-based.
The conditions of data set [2]: human, in vivo; cited from earlier work.
Data set [3] relates to VeroE6 and A549-hACE2 cells.
[4] abbreviates: Severe acute respiratory syndrome coronavirus 2.
The mark [5] stands for this setting: Severe acute respiratory syndrome coronavirus 2, Vero C1008.

Regarding `Cn1cnc(Cn2c(=O)[nH]/c(=N\c3cc4cn(C)nc4cc3Cl)n(Cc3cc(F)c(F)cc3F)c2=O)n1` [ENS, Ensitrelvir], the results for the EC50 in data set [1] (setting [4]) and in data set [1] (setting [5]) were 100 nM and 420 nM, respectively. Moreover, the peak concentration (Cmax) in data set [2] was 57 µM. The “Cytotoxicity (cell viability, CC50)” value in data set [3] is “low”.

Take `CC(C)(C)[C@H](NC(=O)C(F)(F)F)C(=O)N1C[C@H]2[C@@H]([C@H]1C(=O)N[C@H](C#N)C[C@@H]1CCNC1=O)C2(C)C` [NIR, Nirmatrelvir]: the EC50 in data set [1] (setting [4]) was found to be 40 nM; in data set [1] (setting [5]), 2900 nM.
